Patent publication US20250161238A1, “NMDAR Antagonists Prevent Ageing and Aging-Associated Conditions and Diseases Through Increasing 20S Proteasome Activity” (priority 2022, published 2025)

What was measured:
oxidized proteins = assay: Oxidation status of proteins in mouse tissues (DNP-hydrazone western blot); format: in vivo; conditions: 24 month old mice
LC3 = assay: Autophagy: LC3 turnover and LC3 puncta in HepG2 stably expressing LC3; format: cell-based, human; conditions: HepG2 cell stably expressing LC3
Source text: One of the most experimentally straightforward method to monitor autophagic activity is the detection of microtubule-associated protein light chain 3 (LC3) protein processing. LC3 is the only known protein that is specifically associated with all types of autophagic membranes, including phagophore, autophagosome and autolysosome (a hybrid organelle formed by fusion of the autophagosome and lysosome). LC3 is specifically associated with the autophagosome. Upon the autophagy induction, the cytosolic LC3 (LC3-I) is conjugated to phosphatidylethanolamine (PE) to form lipidated LC3 (LC3-II). LC3-II binds to the expanding isolation membrane and remains bounded to complete autophagosome. Therefore, the amount of LC3-II correlates well with the number of autophagosomes, which is widely used as a marker for the autophagosome. Autophagy is a multi-step process which includes not just the formation of autophagosomes, but most importantly, the flux through the entire system, including the degradation of LC3-II upon fusion with lysosomes. Therefore, the expected result is that the LC3-II protein is degraded for complete autophagy. […] However, total amount of LC3 (LC3-I plus LC3II) was not changed.
The other basic protocol for the outophagy detection is monitoring the number of autophagosomes by visualizin LC3 puncta using flourescence microscopy. […]

Ub-YFP = Ub-YFP degredation in Hep3B cells; format: cell-based, human
Procedure: This finding was supported by the following experiments; First, a model was developed to find inhibitor or inhibitors for the ubiquitin dependent degredation in the Hep3B cell line. For this purpose Hep3B cell expressing Ub-YFP genome were prepared. Ub-YFP is a system which was used to detect the ubiquitin dependent proteasome activity (26S). It is also known that Ub-YFP is not affected by the ubiquitin-independent protesome system. In further experiments, we tested molecules which are involved in different parts of the ubiquitination processes including PYR41 (Ubiquitin-activating enzyme (E1) inhibitor), NCC697923 (UBE2N E2 ubiquitin-conjugating enzyme inhibitor), SMER3 (ubiquitin ligase E3 inhibitor), SZL-P1-411 (Skp2 E3 ligase inhibitor), SKPIN C1 (Skp2 E3 ligase inhibitor), P005091 (USP7 inhibitor), Vialin A (USP4 and USP5 inhibitor), Spautin A (USP10 and USP13 inhibitor), ML 323 (USP1-UAF1 inhibitor), IU1 (USP14 inhibitor), and Mg132 (protesome inhibitor) for the inhibition of Ub-YFP degredation. […] MG132 was used as the inhibitor of the protesome activity (FIG. 12A). In the next experiment YFP protein amount was investigated in the presence of ketamin, Pyr41, and ketamin and Pyr41 together by western blot in Hep3B cell.
The Ub-R-YFP open-reading frame was obtained from Ub-R-YFP was a gift from Nico Dantuma (Addgene plasmid #11948). Ub-R-YFP sequence was obtained from the original vector by cutting the plasmid with NheI and NotI enzymes (Thermo Scientific), blunt ended and was cloned into pBSK-clo2D which is cut by EcoRV restriction enzyme (SibEnzyme, E059). Ub-R-YFP was obtained from the pBSK-clo2D vector by cutting with BamHI. pLV-EF1a-IRES-Puro (85132-Addgene) vector was cut by BamHI restriction enzyme and dephospharylated and ligated with Ub-R-YFP. After the orientation construct was determined, pLV-EF1a-IRES-Puro-Ub-R-YFP was reproduced in large volumes using DH5a E. Coli.
Hek293T cells were transfected with the pLV-EF1a-IRES-Puro-Ub-R-YFP and helper vectors psPAX2 and pMD2.G using Calcium Phosphate Mammalian Transfection Kit (631312-Takara bio). After 48 h supernatants containing Ub-R-YFP lentivirus were collected and target cells were infected under the presence of […] polybrene. After 24 hours, the media of the cells were replaced with media containing […] puromycin for 6 days. Then living cells were combined in a pool. Infected clones were maintained in the presence of 250 ng/ml puromycin.

Compound | oxidation of protein from lung tissue (oxidized proteins) | Oxidized proteins in liver, brain, kidney, skin and pancreas (oxidized proteins; memantin for 12 months) | total amount of LC3 (LC3-I plus LC3II) (LC3) | LC3-II amount (LC3; western blot) | Ub-YFP degredation (Ub-YFP; Hep3B expressing Ub-YFP) | YFP protein amount (Ub-YFP; Hep3B, western blot)
CC12CC3CC(C)(C1)CC(N)(C3)C2 [memantine, 3,5-dimethyladamantan-1-amine] | No significant change | reduced | – | – | – | –
CNC1(c2ccccc2Cl)CCCCC1=O (stereo not drawn) [ketamin, 2-(2-chlorophenyl)-2-(methylamino)-cyclohexanone] | – | – | not changed | increase | no effect | did not decrease
